# ChEMBL document CHEMBL3351415, “Synthesis, antimicrobial and anti-biofilm activities of novel Schiff base analogues derived from methyl-12-aminooctadec-9-enoate” (Bioorg Med Chem Lett, 2014)
# pIC50: −log10 of the molar value.
# Legend:
# Escherichia coli = experiment: Antimicrobial activity against Escherichia coli MTCC 739 incubated for 24 hrs by well diffusion method; format: functional; settings: MTCC 739, 24 h
# Pseudomonas aeruginosa = experiment: Antimicrobial activity against Pseudomonas aeruginosa MTCC 2453 incubated for 24 hrs by well diffusion method; format: functional; settings: MTCC 2453, 24 h
# [1] = Antimicrobial activity against Klebsiella […] incubated for 24 hrs by well diffusion method; format: functional, Raoultella planticola
# Bacillus subtilis [2] = experiment: Antimicrobial activity against Bacillus subtilis MTCC 121 incubated for 24 hrs by well diffusion method; format: functional; settings: MTCC 121, 24 h
# Staphylococcus aureus [3] = experiment: Antimicrobial activity against Staphylococcus aureus MTCC 96 incubated for 24 hrs by well diffusion method; format: functional; settings: MTCC 96, 24 h
# Micrococcus luteus = experiment: Antimicrobial activity against Micrococcus luteus MTCC 2470 incubated for 24 hrs by well diffusion method; format: functional; settings: MTCC 2470, 24 h
# Staphylococcus aureus [4] = experiment: Antimicrobial activity against Staphylococcus aureus MLS-16 MTCC 2940 incubated for 24 hrs by well diffusion method; format: functional; settings: MLS-16 MTCC 2940, 24 h
# Staphylococcus aureus [5] = experiment: Anti-biofilm activity against Staphylococcus aureus MLS-16 MTCC 2940 assessed as inhibition of biofilm formation incubated for 24 hrs by crystal violet staining based modified biofilm inhibition assay; format: functional, organism-based; settings: MLS-16 MTCC 2940, 24 h
# Staphylococcus aureus [6] = experiment: Anti-biofilm activity against Staphylococcus aureus MTCC 96 assessed as inhibition of biofilm formation incubated for 24 hrs by crystal violet staining based modified biofilm inhibition assay; format: functional, organism-based; settings: MTCC 96, 24 h
# Bacillus subtilis [7] = experiment: Bactericidal activity against Bacillus subtilis MTCC 121 incubated for 24 hrs; format: functional; settings: MTCC 121, 24 h
# Staphylococcus aureus [8] = experiment: Bactericidal activity against Staphylococcus aureus MTCC 96 incubated for 24 hrs; format: functional; settings: MTCC 96, 24 h
# Bacillus subtilis [9] = experiment: Anti-biofilm activity against Bacillus subtilis MTCC 121 assessed as inhibition of biofilm formation incubated for 24 hrs by crystal violet staining based modified biofilm inhibition assay; format: functional, organism-based; settings: MTCC 121, 24 h
# Staphylococcus aureus [10] = experiment: Bactericidal activity against Staphylococcus aureus MLS-16 MTCC 2940 incubated for 24 hrs; format: functional; settings: MLS-16 MTCC 2940, 24 h
SMILES,MIC (Escherichia coli),MIC (Pseudomonas aeruginosa),MIC [1],MIC (Bacillus subtilis [2]),MIC (Staphylococcus aureus [3]),MIC (Micrococcus luteus),MIC (Staphylococcus aureus [4]),pIC50 (Staphylococcus aureus [5]),pIC50 (Staphylococcus aureus [6]),MBC (Bacillus subtilis [7]),MBC (Staphylococcus aureus [8]),pIC50 (Bacillus subtilis [9]),MBC (Staphylococcus aureus [10])
CCCCCCC(C/C=C\CCCCCCCC(=O)OC)/N=C\c1cccc(C)c1 (stereo not given),> 300 µM,> 300 µM,> 300 µM,75.5 µM,151 µM,> 300 µM,75.5 µM,,,,,,
CCCCCCC(C/C=C\CCCCCCCC(=O)OC)/N=C\c1ccc(N(C)C)cc1 (stereo not given),> 300 µM,> 300 µM,> 300 µM,35.2 µM,17.6 µM,> 300 µM,17.6 µM,4.94,5.02,70.5 µM,17.6 µM,4.56,35.2 µM
CCCCCCC(C/C=C\CCCCCCCC(=O)OC)/N=C\c1c[nH]c2ccccc12 (stereo not given),> 300 µM,> 300 µM,> 300 µM,35.6 µM,17.8 µM,> 300 µM,17.8 µM,5.02,5.14,71.2 µM,35.6 µM,4.66,35.6 µM
CCCCCCC(C/C=C\CCCCCCCC(=O)OC)/N=C\c1ccc(Cl)cc1 (stereo not given),> 300 µM,> 300 µM,> 300 µM,9 µM,9 µM,> 300 µM,9 µM,5.37,5.32,9 µM,18 µM,5.22,18 µM
CCCCCCC(C/C=C\CCCCCCCC(=O)OC)/N=C\c1ccccc1O (stereo not given),> 300 µM,> 300 µM,> 300 µM,> 300 µM,> 300 µM,> 300 µM,> 300 µM,,,,,,
CCCCCCC(C/C=C\CCCCCCCC(=O)OC)/N=C\c1ccc(OC)c(OC)c1 (stereo not given),> 300 µM,> 300 µM,> 300 µM,33.9 µM,67.9 µM,> 300 µM,33.9 µM,4.61,4.38,33.9 µM,136 µM,4.67,67.9 µM
CCCCCCC(C/C=C\CCCCCCCC(=O)OC)/N=C\c1ccc(O)c(OC)c1 (stereo not given),> 300 µM,> 300 µM,> 300 µM,17.5 µM,17.5 µM,> 300 µM,17.5 µM,5.10,5.03,35 µM,35 µM,4.99,35 µM
CCCCCCC(C/C=C\CCCCCCCC(=O)OC)/N=C\c1ccc(O)cc1 (stereo not given),> 300 µM,> 300 µM,> 300 µM,37.5 µM,18.7 µM,> 300 µM,18.7 µM,5.04,5.00,75.1 µM,37.5 µM,4.71,37.5 µM
CCCCCCC(C/C=C\CCCCCCCC(=O)OC)/N=C\c1ccc(OC)cc1 (stereo not given),> 300 µM,> 300 µM,> 300 µM,18.1 µM,18.1 µM,> 300 µM,36.3 µM,4.63,4.92,36.3 µM,36.3 µM,5.10,36.3 µM
